The values below are quoted from earlier work in patent EP1530463B1, “L-ARGININE CONTAINING PHARMACEUTICAL COMPOSITION” (Vasopharm Biotech GmbH, priority 2002, dated 2004).

Like-named read-outs stand apart in the source and are kept apart here.

Usually pKa stands for the negative logarithm of the acid dissociation constant. `N=C(N)NCCC[C@H](N)C(=O)O` [L-arginine]: under “guanidino group”, the pKa is 12.48.

`O=C1O[C@H]([C@@H](O)CO)C(O)=C1O` [ascorbic acid]: under “organic acid”, the pKa is reported as 4.17.
